Data as given in US20240132484A1, “BROAD SPECTRUM ANTIVIRAL COMPOUNDS TARGETING THE SKI COMPLEX” (priority 2020, published 2024).
“And” between values parts separate entries of the source, which are not always exact repeats. Equal entries are not always repeated. Where two headings read alike, the source gives them in different places.

Columns and labels:
cells (nuclei count) = settings: for Toxicity Data, Average, Mean: average of Exp 1-3 (SMW475, SMW477, SMW478)
SARS2 = assay type: cell-based, SARS-CoV-2; settings: for Infection Data, Average, Mean: average of Exp 1-3 (SMW475, SMW477, SMW478)

COC(=O)c1csc(CN(CCN(C)C)Cc2ccsc2)c1 [SILCS31]
Relative cell count to DMSO controls, Average 1 μM (cells (nuclei count); 1 μM, toxicity data, 100=DMSO control): 113.44 | Relative cell count to DMSO controls, Average 5 μM (cells (nuclei count); 5 μM, toxicity data, 100=DMSO control): 114.77 | Relative cell count to DMSO controls, Average 10 μM (cells (nuclei count); 10 μM, toxicity data, 100=DMSO control): 109.5 | Relative cell count to DMSO controls, Average 25 μM (cells (nuclei count); 25 μM, toxicity data, 100=DMSO control): 102.57 | Relative cell count to DMSO controls, Average 50 μM (cells (nuclei count); 50 μM, toxicity data, 100=DMSO control): 96.45 | Toxicity Data, Average, Mean (cells (nuclei count); n 9, 1 uM): 113.44% | Toxicity Data, Average, Mean (cells (nuclei count); n 9, 5 uM): 114.77% | Toxicity Data, Average, Mean (cells (nuclei count); n 9, 10 uM): 109.50% | Toxicity Data, Average, Mean (cells (nuclei count); n 9, 25 uM): 102.57% | Toxicity Data, Average, Mean (cells (nuclei count); n 9, 50 uM): 96.45% | Relative cell count to DMSO controls, Average (for correlation analysis) (cells (nuclei count); average value over the 5 tested concentrations (1 to 50 uM)): 107.35 | SARS2 antiviral activity (SARS2): decrease in activity | Percentage Infection Relative to Appropriate DMSO Control with Avg Background Subtraction (SARS2; Exp 1 (SMW475), 1 uM, single well): 89.46% and 114.99% and 104.36% | Percentage Infection Relative to Appropriate DMSO Control with Avg Background Subtraction (SARS2; Exp 1 (SMW475), 5 uM, single well): 96.46% and 105.10% and 110.06% | Percentage Infection Relative to Appropriate DMSO Control with Avg Background Subtraction (SARS2; Exp 1 (SMW475), 10 uM, single well): 122.44% and 140.70% and 131.42% | Percentage Infection Relative to Appropriate DMSO Control with Avg Background Subtraction (SARS2; Exp 1 (SMW475), 25 uM, single well): 64.20% and 68.29% and 61.79% | Percentage Infection Relative to Appropriate DMSO Control with Avg Background Subtraction (SARS2; Exp 1 (SMW475), 50 uM, single well): 27.95% and 23.70% and 21.94% | Percentage Infection Relative to Appropriate DMSO Control with Avg Background Subtraction (SARS2; Exp 2 (SMW477), 1 uM, single well): 99.50% and 100.31% and 97.32% | Percentage Infection Relative to Appropriate DMSO Control with Avg Background Subtraction (SARS2; Exp 2 (SMW477), 5 uM, single well): 126.44% and 106.51% and 105.32% | Percentage Infection Relative to Appropriate DMSO Control with Avg Background Subtraction (SARS2; Exp 2 (SMW477), 10 uM, single well): 115.31% and 105.13% and 102.55% | Percentage Infection Relative to Appropriate DMSO Control with Avg Background Subtraction (SARS2; Exp 2 (SMW477), 25 uM, single well): 73.95% and 82.92% and 76.95% | Percentage Infection Relative to Appropriate DMSO Control with Avg Background Subtraction (SARS2; Exp 2 (SMW477), 50 uM, single well): 19.41% and 19.72% and 23.27% | Percentage Infection Relative to Appropriate DMSO Control with Avg Background Subtraction (SARS2; Exp 3 (SMW478), 1 uM, Greiner Celigo plates): 90.68% and 87.75% and 89.34% | Percentage Infection Relative to Appropriate DMSO Control with Avg Background Subtraction (SARS2; Exp 3 (SMW478), 5 uM, Greiner Celigo plates): 64.83% and 79.11% and 61.06% | Percentage Infection Relative to Appropriate DMSO Control with Avg Background Subtraction (SARS2; Exp 3 (SMW478), 10 uM, Greiner Celigo plates): 63.55% and 89.71% and 51.99% | Percentage Infection Relative to Appropriate DMSO Control with Avg Background Subtraction (SARS2; Exp 3 (SMW478), 25 uM, Greiner Celigo plates): 86.74% and 80.23% and 76.86% | Percentage Infection Relative to Appropriate DMSO Control with Avg Background Subtraction (SARS2; Exp 3 (SMW478), 50 uM, Greiner Celigo plates): 26.23% and 18.61% and 22.87% | Percentage Inhibition Average 1 μM (SARS2; SARS2, 1 μM): 2.92% | Screening data (Relative infection to DMSO controls) Average 1 μM (SARS2; SARS2, 1 μM, 100=DMSO control): 97.08 | Percentage Inhibition Average 5 μM (SARS2; SARS2, 5 μM): 5.01% | Screening data (Relative infection to DMSO controls) Average 5 μM (SARS2; SARS2, 5 μM, 100=DMSO control): 94.99 | Percentage Inhibition Average 10 μM (SARS2; SARS2, 10 μM): −2.53% | Screening data (Relative infection to DMSO controls) Average 10 μM (SARS2; SARS2, 10 μM, 100=DMSO control): 102.53 | Percentage Inhibition Average 25 μM (SARS2; SARS2, 25 μM): 25.34% | Screening data (Relative infection to DMSO controls) Average 25 μM (SARS2; SARS2, 25 μM, 100=DMSO control): 74.66 | Percentage Inhibition Average 50 μM (SARS2; SARS2, 50 μM): 77.37% | Screening data (Relative infection to DMSO controls) Average 50 μM (SARS2; SARS2, 50 μM, 100=DMSO control): 22.63 | Average (relative infection to DMSO over the 5 tested concentrations) (SARS2; SARS2, average over 1 to 50 uM, 100=DMSO control): 78.38 | Infection Data, Average, Mean (SARS2; n 9, 1 uM): 97.08% | Infection Data, Average, Mean (SARS2; n 9, 5 uM): 94.99% | Infection Data, Average, Mean (SARS2; n 9, 10 uM): 102.53% | Infection Data, Average, Mean (SARS2; n 9, 25 uM): 74.66% | Infection Data, Average, Mean (SARS2; n 9, 50 uM): 22.63%
